In brackets after ≈: the same amount, converted by molar mass. Bounds are passed on as bounds.

The subject of data set [1] is Herpes simplex type 1 virus (HFEM strain). The experiment in a line: Plaque reduction of Herpes simplex type 1 virus (HFEM strain) in Vero cells. In kind it is cell-based, Herpes simplex virus type 1. To be noted: for ED50 (concentration reducing the plaque number at 50%): HSV-1 strain HFEM, 8640 min; for ED50 (concentration reducing the plaque number at 50%) / IC50: Vero cells; for IC50: Human alphaherpesvirus 1, 144 h, HSV-1 HFEM strain, 37° C., 6 days. From the text: (§1) The same method was used to determine the ED50 (concentration reducing the plaque number at 50%) of the E/Z mixture against the KOS and SK16 strains of Herpes simplex virus type 1 and the ED50 of the E/Z mixture and the separated isomers ("peak 1" and "peak 2") against the HFEM strain.

Data set [2] deals with Herpes simplex virus type 1 (KOS strain). The experiment in a line: Plaque reduction of Herpes simplex virus type 1, KOS strain. The class given is cell-based. The note with it: Human alphaherpesvirus 1, 144 h; HSV-1 strain KOS, Vero cells; read-out: ED50 (concentration reducing the plaque number at 50%).
Description: as §1

Data set [3] deals with Herpes simplex virus type 1 (SCl6 strain). The experiment in a line: Plaque reduction of Herpes simplex virus type 1, SCl6 strain. In kind it is cell-based. To be noted: Human alphaherpesvirus 1, 144 h; HSV-1 strain SCl6, Vero cells; read-out: ED50 (concentration reducing the plaque number at 50%).
Description: as §1

Data set [4] in a line: Anti-host cell activity: growth of Vero cells. In kind it is cell-based, African Green Monkey. To be noted: monkey, vero cells; Vero cell growth versus antiviral activity; read-out: Therapeutic ratio. As for the experimental part:
(§2) Vero cells seeded at low density were grown in the presence of E/Z-5-(2-chloro-1,2-difluorovinyl)-2'-deoxyuridine for 72 h. During this time the cells doubled in number approximately once every 24 h. […] 5-(2-Chloro-1,2-difluorovinyl)-2'-deoxyuridine thus has a therapeutic ratio of >5.

For another data set, the system named is Vero cells. As to the kind of experiment: Anti-host cell activity: growth of Vero cells. In kind it is cell-based, African Green Monkey. To be noted: Vero cells, 72 h. As to the method:
as §2

Data set [5] relates to human diploid fibroblast MRC-5 cell line. As to the kind of experiment: Anti-host cell activity: proliferation of human diploid fibroblast MRC-5 cells. In kind it is cell-based. To be noted: even at 200 μg/ml.
The conditions of data set [6]: african green monkey, vero cells.
Description: Vero (African Green Monkey Kidney) cells were grown to confluence in 6 well multidishes, each well being 3.5 cm in diameter. The cells were incubated with Herpes simplex type 1 virus (HFEM strain) and overlaid with 0.5 mL of 0.9% agarose (w/v) in maintenance medium containing the test compound at a range of concentrations from 200 μg/mL in half-log dilution steps. The virus infected cultures were then incubated at 37° C. for 6 days before fixing in 4% formaldehyde solution and staining with carbolfuchsin. The dishes were then examined to find that concentration of test compound causing a 50% reduction in the number of virus plaques formed (PDD50 value) and the minimum concentration of test compound which killed the cell monolayer, leaving a clear zone devoid of cells and virus plaques (MTD).

As to `O=c1[nH]c(=O)n([C@H]2C[C@H](O)[C@@H](CO)O2)cc1C(F)=C(F)Cl` (single isomer, unassigned) [Peak 2], the “ED50 (concentration reducing the plaque number at 50%)” value in data set [1] is 24 ± 6 µg/mL (≈ 73.9 µM). Besides, the “Activity of the separated isomers in the screens” value in data set [1] (in words, at the levels tested) is given as “Only one of the isomers is active at the levels tested”.
For `O=c1[nH]c(=O)n([C@H]2C[C@H](O)[C@@H](CO)O2)cc1C(F)=C(F)Cl` (single isomer, unassigned) [Peak 1], the “ED50 (concentration reducing the plaque number at 50%)” value in data set [1] was above 100 µg/mL.
Usually IC50 stands for the concentration at which inhibition is half-maximal. With `O=c1[nH]c(=O)n([C@H]2C[C@H](O)[C@@H](CO)O2)cc1C(F)=C(F)Cl` [E/Z-5-(1,2-Difluoro-2-chlorovinyl)-2'-deoxyuridine], the “ED50 (concentration reducing the plaque number at 50%)” value in data set [1] (listed as E/Z) was 24 ± 3 µg/mL (≈ 73.9 µM). The molecule further had an IC50 in data set [1] of 14 µg/mL (≈ 43.1 µM). Moreover, the EC50 in data set [2] came out at 20 µg/mL (≈ 61.6 µM); in data set [3], 21 µg/mL (≈ 64.7 µM). Also, the selectivity ratio in data set [4] is above 5. The “Cell doubling time in the presence of compound” value with Vero cells was around 24 h. Also, the “Depression of cell growth” value in the data set with Vero cells (100 μg/ml) was “only slight depression of cell growth was observed”. For the same molecule, the “Effect on cell proliferation” value in data set [5] is “little effect on cell proliferation”. In data set [6], this molecule displayed an MCC at 144 h above 200 µg/mL.
With `O=c1[nH]c(=O)n([C@H]2C[C@H](O)[C@@H](CO)O2)cc1I` [5-iodo-2'-deoxyuridine, reference compound], the IC50 in data set [1] is 3 µg/mL (≈ 8.47 µM). In data set [6], this molecule showed an MCC at 144 h above 100 µg/mL.

The values above are taken from US4383990A, “Antiviral agents, their preparation and use” (priority 1980, dated 1983).
